Data as given in ChEMBL document CHEMBL1147563, “Solid-phase synthesis and SAR of 4-carboxy-2-azetidinone mechanism-based tryptase inhibitors” (Bioorg Med Chem Lett, 2004).

How the values were obtained:
Tryptase = Tryptase (Homo sapiens, UniProt Q9BZJ3+Q15661+Q9NRR2); test: Inhibitory activity against human tryptase
Serine protease 1 [1] = target: T1, Serine protease 1 (Bos taurus, UniProt P00760); test: Inhibitory activity against bovine trypsin
T1 sequence (P00760 whole entry): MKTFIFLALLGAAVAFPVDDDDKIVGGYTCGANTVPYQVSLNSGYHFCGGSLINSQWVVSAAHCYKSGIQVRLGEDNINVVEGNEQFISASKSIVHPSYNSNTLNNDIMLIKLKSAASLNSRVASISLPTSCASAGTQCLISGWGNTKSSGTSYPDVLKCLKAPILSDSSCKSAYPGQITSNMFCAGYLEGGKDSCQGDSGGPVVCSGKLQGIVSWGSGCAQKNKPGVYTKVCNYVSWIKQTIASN

Coagulation factor X = Coagulation factor X (Homo sapiens, UniProt P00742); test: Inhibitory activity against Coagulation factor X
Plasminogen = Plasminogen (Rattus norvegicus, UniProt Q01177); test: Inhibitory activity against plasmin
Prothrombin = Prothrombin (Homo sapiens, UniProt P00734); test: Inhibitory activity against thrombin
[2] = target: Tissue-type plasminogen activator (Homo sapiens, UniProt P00750); test: Inhibitory activity against tissue type plasminogen activator
Serine protease 1 [3] = target: Serine protease 1 (Homo sapiens, UniProt P07477); test: Inhibitory activity against trypsin
[4] = target: Urokinase-type plasminogen activator (Homo sapiens, UniProt P00749); test: Inhibitory activity against Urokinase-type plasminogen activator
[5] = target: T2, Serine protease 1 (Bos taurus) (UniProt P00760); test: Inhibition of bovine trypsin at 0.2 uM
T2 sequence (whole entry): T1 sequence (P00760 whole entry)

Chain of Serine protease 1 (Homo sapiens, UniProt P07477) (P07477 whole entry): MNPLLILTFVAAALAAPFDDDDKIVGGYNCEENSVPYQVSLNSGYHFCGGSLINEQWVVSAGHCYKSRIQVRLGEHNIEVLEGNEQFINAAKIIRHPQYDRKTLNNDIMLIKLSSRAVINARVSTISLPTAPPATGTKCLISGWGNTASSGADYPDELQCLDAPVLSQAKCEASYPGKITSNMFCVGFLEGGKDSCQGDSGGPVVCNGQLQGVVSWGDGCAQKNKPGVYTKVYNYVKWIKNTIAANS
Chain of Plasminogen (Q01177 97-581 limits assumed): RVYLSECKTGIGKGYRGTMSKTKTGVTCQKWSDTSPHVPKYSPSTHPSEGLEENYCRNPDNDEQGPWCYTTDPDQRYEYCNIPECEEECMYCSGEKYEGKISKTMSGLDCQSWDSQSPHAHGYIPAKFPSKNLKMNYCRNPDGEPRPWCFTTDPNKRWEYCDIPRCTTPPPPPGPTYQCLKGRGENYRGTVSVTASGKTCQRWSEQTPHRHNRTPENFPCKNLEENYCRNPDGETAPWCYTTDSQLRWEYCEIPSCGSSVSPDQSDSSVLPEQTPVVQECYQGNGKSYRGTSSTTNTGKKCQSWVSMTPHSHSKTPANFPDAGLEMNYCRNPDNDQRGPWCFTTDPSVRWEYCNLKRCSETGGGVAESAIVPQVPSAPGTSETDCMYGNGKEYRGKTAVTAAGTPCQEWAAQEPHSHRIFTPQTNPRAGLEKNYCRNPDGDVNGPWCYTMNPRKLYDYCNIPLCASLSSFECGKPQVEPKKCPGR
Chain of Plasminogen (Q01177 582-812 limits assumed): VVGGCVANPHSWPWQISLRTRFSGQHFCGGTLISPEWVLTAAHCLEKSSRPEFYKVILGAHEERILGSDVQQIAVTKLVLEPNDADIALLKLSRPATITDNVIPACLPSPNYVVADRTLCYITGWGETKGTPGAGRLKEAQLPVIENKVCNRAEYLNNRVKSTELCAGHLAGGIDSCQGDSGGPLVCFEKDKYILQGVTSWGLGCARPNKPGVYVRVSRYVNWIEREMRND
Chain of Tissue-type plasminogen activator (P00750 whole entry): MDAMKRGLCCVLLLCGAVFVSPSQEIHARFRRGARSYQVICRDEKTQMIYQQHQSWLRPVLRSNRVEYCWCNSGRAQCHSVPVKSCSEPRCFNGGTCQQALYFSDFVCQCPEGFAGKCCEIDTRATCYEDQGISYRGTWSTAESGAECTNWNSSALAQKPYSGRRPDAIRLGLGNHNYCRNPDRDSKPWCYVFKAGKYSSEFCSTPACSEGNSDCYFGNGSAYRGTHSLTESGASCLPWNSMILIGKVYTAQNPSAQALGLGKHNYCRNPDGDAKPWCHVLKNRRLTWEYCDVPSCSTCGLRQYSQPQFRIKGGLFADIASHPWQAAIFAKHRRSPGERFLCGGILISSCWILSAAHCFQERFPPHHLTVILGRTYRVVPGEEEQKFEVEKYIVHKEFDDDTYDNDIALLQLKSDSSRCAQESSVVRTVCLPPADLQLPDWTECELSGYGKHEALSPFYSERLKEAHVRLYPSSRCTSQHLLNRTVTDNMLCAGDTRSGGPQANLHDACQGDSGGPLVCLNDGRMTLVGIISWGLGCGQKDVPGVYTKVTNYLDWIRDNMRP
Chain of Coagulation factor X (P00742 41-179 limits assumed): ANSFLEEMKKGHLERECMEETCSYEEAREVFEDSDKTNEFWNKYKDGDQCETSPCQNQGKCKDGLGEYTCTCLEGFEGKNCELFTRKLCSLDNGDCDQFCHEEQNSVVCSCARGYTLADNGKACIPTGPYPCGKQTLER
Chain of Coagulation factor X (P00742 235-488 limits assumed): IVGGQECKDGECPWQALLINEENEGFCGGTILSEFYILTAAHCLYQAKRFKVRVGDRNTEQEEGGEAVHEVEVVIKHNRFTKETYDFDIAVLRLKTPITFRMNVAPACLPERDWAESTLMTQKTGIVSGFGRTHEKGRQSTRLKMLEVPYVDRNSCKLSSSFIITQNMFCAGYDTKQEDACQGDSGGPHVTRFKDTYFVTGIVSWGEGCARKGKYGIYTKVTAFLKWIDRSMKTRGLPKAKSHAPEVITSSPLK

Compound: N=C(N)N1CCC[C@H](C[C@H]2C(=O)N(C(=O)N3CCN(C(=O)CCCCCc4ccccc4)CC3)[C@@H]2C(=O)O)C1
- IC50 (Tryptase): 1.7 nM
- IC50 (Serine protease 1 [1]): 5760 nM

Compound: CC(C)(C)NC(=O)N1CCN(C(=O)N2C(=O)[C@H](CC3CCNCC3)[C@H]2C(=O)O)CC1
- IC50 (Coagulation factor X): > 1100 nM
- IC50 (Plasminogen): 250 nM
- IC50 (Prothrombin): > 1100 nM
- IC50 [2]: > 1100 nM
- IC50 (Tryptase): 30 nM
- IC50 (Serine protease 1 [1]): 1900 nM
- IC50 (Serine protease 1 [3]): 62 nM
- IC50 [4]: 34 nM

Compound: CC(=O)Nc1ccsc1C(=O)N1CCN(C(=O)N2C(=O)[C@H](CC3CCNCC3)C2C(=O)O)CC1 (single isomer, unassigned)
- IC50 (Tryptase): 190 nM
- inhibition [5]: 68%

Compound: O=C(O)C1[C@@H](CC2CCNCC2)C(=O)N1C(=O)N1CCN(C(=O)Cc2ccc(Oc3ccccc3)cc2)CC1 (single isomer, unassigned)
- IC50 (Tryptase): 5 nM
- IC50 (Serine protease 1 [1]): 950 nM

Compound: O=C(O)C1[C@@H](CC2CCNCC2)C(=O)N1C(=O)N1CCN(C(=O)Cc2ccc3c(c2)CCCC3)CC1 (single isomer, unassigned)
- IC50 (Tryptase): 30 nM
- inhibition [5]: 18%

Compound: O=C(O)C1[C@@H](CC2CCNCC2)C(=O)N1C(=O)N1CCN(C(=O)CCCCCc2ccc3ccccc3c2)CC1 (single isomer, unassigned)
- IC50 (Tryptase): 1 nM
- IC50 (Serine protease 1 [1]): 320 nM

Compound: COc1cccc(CCC(=O)N2CCN(C(=O)N3C(=O)[C@H](CC4CCNCC4)C3C(=O)O)CC2)c1 (single isomer, unassigned)
- IC50 (Tryptase): 14 nM
- IC50 (Serine protease 1 [1]): 810 nM

Compound: O=C(O)C1[C@@H](CC2CCNCC2)C(=O)N1C(=O)N1CCN(C(=O)Cc2cccc(Oc3ccccc3)c2)CC1 (single isomer, unassigned)
- IC50 (Tryptase): 17 nM
- IC50 (Serine protease 1 [1]): 970 nM

Compound: O=C(O)C1[C@@H](CC2CCNCC2)C(=O)N1C(=O)N1CCN(C(=O)CCCCc2ccccc2)CC1 (single isomer, unassigned)
- IC50 (Tryptase): 6 nM
- IC50 (Serine protease 1 [1]): 810 nM

Compound: O=C(O)C1[C@@H](CC2CCNCC2)C(=O)N1C(=O)N1CCN(C(=O)c2ccccc2-c2ccccc2)CC1 (single isomer, unassigned)
- IC50 (Tryptase): 42 nM
- inhibition [5]: 46%

Compound: O=C(O)C1[C@@H](CC2CCNCC2)C(=O)N1C(=O)N1CCN(C(=O)c2cc3ccccc3o2)CC1 (single isomer, unassigned)
- IC50 (Tryptase): 21 nM
- inhibition [5]: 89%

Compound: Cc1onc(-c2ccccc2)c1C(=O)N1CCN(C(=O)N2C(=O)[C@H](CC3CCNCC3)C2C(=O)O)CC1 (single isomer, unassigned)
- IC50 (Tryptase): 290 nM
- inhibition [5]: 31%

Compound: O=C(O)C1[C@@H](CC2CCNCC2)C(=O)N1C(=O)N1CCN(C(=O)c2ccccc2CCc2ccccc2)CC1 (single isomer, unassigned)
- IC50 (Tryptase): 140 nM
- inhibition [5]: 60%

Compound: O=C(O)C1[C@@H](CC2CCNCC2)C(=O)N1C(=O)N1CCN(C(=O)CCCCCCc2ccccc2)CC1 (single isomer, unassigned)
- IC50 (Tryptase): 5 nM
- IC50 (Serine protease 1 [1]): 1300 nM

Compound: CC1=NN(c2ccc(C(=O)N3CCN(C(=O)N4C(=O)[C@H](CC5CCNCC5)C4C(=O)O)CC3)cc2)C(=O)C1 (single isomer, unassigned)
- IC50 (Tryptase): 380 nM
- inhibition [5]: 91%

Compound: O=C(O)C1[C@@H](CC2CCNCC2)C(=O)N1C(=O)N1CCN(C(=O)CCCC2CCCCC2)CC1 (single isomer, unassigned)
- IC50 (Tryptase): 24 nM
- inhibition [5]: 40%

Compound: O=C(O)C1[C@@H](CC2CCNCC2)C(=O)N1C(=O)N1CCN(C(=O)c2cccc(Oc3ccccc3)c2)CC1 (single isomer, unassigned)
- IC50 (Tryptase): 15 nM
- inhibition [5]: 78%

Compound: Cc1cccc(CCC(=O)N2CCN(C(=O)N3C(=O)[C@H](CC4CCNCC4)C3C(=O)O)CC2)c1 (single isomer, unassigned)
- IC50 (Tryptase): 13 nM
- IC50 (Serine protease 1 [1]): 1200 nM

Compound: O=C(O)C1[C@@H](CC2CCNCC2)C(=O)N1C(=O)N1CCN(C(=O)c2ccc(Oc3ccccc3)cc2)CC1 (single isomer, unassigned)
- IC50 (Tryptase): 7 nM
- IC50 (Serine protease 1 [1]): 140 nM

Compound: O=C(O)C1[C@@H](CC2CCNCC2)C(=O)N1C(=O)N1CCN(C(=O)Cc2ccc(OCc3ccccc3)cc2)CC1 (single isomer, unassigned)
- IC50 (Plasminogen): 380 nM
- IC50 [2]: > 33000 nM
- IC50 (Tryptase): 1 nM
- IC50 (Serine protease 1 [1]): 440 nM
- IC50 (Serine protease 1 [3]): 440 nM
- IC50 [4]: 1210 nM

Compound: O=C(NCCCC(=O)N1CCN(C(=O)N2C(=O)[C@H](CC3CCNCC3)C2C(=O)O)CC1)OCc1ccccc1 (single isomer, unassigned)
- IC50 (Tryptase): 6 nM
- IC50 (Serine protease 1 [1]): 1200 nM

Compound: O=C(O)C1[C@@H](CC2CCNCC2)C(=O)N1C(=O)N1CCN(C(=O)CCCCCc2ccccc2)CC1 (single isomer, unassigned)
- IC50 (Plasminogen): 170 nM
- IC50 [2]: > 33000 nM
- IC50 (Serine protease 1 [1]): 310 nM
- IC50 (Serine protease 1 [3]): 310 nM
- IC50 [4]: 970 nM

Compound: Cc1ccc(C2=CN=C(CCC(=O)N3CCN(C(=O)N4C(=O)[C@H](CC5CCNCC5)C4C(=O)O)CC3)C2=O)cc1 (single isomer, unassigned)
- IC50 (Tryptase): 5 nM
- IC50 (Serine protease 1 [1]): 1800 nM

Compound: O=C(O)C1[C@@H](CC2CCNCC2)C(=O)N1C(=O)N1CCN(C(=O)CCCCCCCc2ccccc2)CC1 (single isomer, unassigned)
- IC50 (Tryptase): 5 nM
- IC50 (Serine protease 1 [1]): 1300 nM

Compound: O=C(CCC(=O)N1CCN(C(=O)N2C(=O)[C@H](CC3CCNCC3)C2C(=O)O)CC1)NCCc1ccccc1 (single isomer, unassigned)
- IC50 (Tryptase): 17 nM
- IC50 (Serine protease 1 [1]): 1900 nM

Compound: O=C1CC[C@@H](C(=O)N2CCN(C(=O)N3C(=O)[C@H](CC4CCNCC4)C3C(=O)O)CC2)N1 (single isomer, unassigned)
- IC50 (Tryptase): 170 nM
- inhibition [5]: 69%

Compound: O=C(O)C1[C@@H](CC2CCNCC2)C(=O)N1C(=O)N1CCN(C(=O)c2ccc(CCCc3ccccc3)cc2)CC1 (single isomer, unassigned)
- IC50 (Tryptase): 6 nM
- IC50 (Serine protease 1 [1]): 310 nM

Compound: O=C(O)C1[C@@H](CC2CCNCC2)C(=O)N1C(=O)N1CCN(C(=O)CCCc2ccc3ccccc3c2)CC1 (single isomer, unassigned)
- IC50 (Tryptase): 10 nM
- IC50 (Serine protease 1 [1]): 600 nM

Compound: O=C(O)C1[C@@H](CC2CCNCC2)C(=O)N1C(=O)N1CCN(C(=O)CCCc2nc(-c3ccc(Cl)cc3)no2)CC1 (single isomer, unassigned)
- IC50 (Tryptase): 5 nM
- IC50 (Serine protease 1 [1]): 150 nM

Compound: O=C(O)C1[C@@H](CC2CCNCC2)C(=O)N1C(=O)N1CCN(C(=O)c2ccc(OCc3ccccc3)cc2)CC1 (single isomer, unassigned)
- IC50 (Tryptase): 4 nM
- IC50 (Serine protease 1 [1]): 120 nM

Compound: O=C(CCCC(=O)N1CCN(C(=O)N2C(=O)[C@H](CC3CCNCC3)C2C(=O)O)CC1)Nc1ccccc1 (single isomer, unassigned)
- IC50 (Tryptase): 12 nM
- IC50 (Serine protease 1 [1]): 1350 nM

Compound: CC(C)(C)NC(=O)N1CCN(C(=O)N2C(=O)[C@H](CCCN=C(N)N)C2C(=O)O)CC1 (single isomer, unassigned)
- IC50 (Plasminogen): 430 nM
- IC50 [2]: > 8250 nM
- IC50 (Serine protease 1 [1]): 72 nM
- IC50 (Serine protease 1 [3]): 4.5 nM

Compound: O=C(O)C1[C@@H](CC2CCNCC2)C(=O)N1C(=O)N1CCN(C(=O)Cc2ccc(-c3ccccc3)cc2)CC1 (single isomer, unassigned)
- IC50 (Tryptase): 5 nM
- IC50 (Serine protease 1 [1]): 740 nM

Compound: O=C(O)C1[C@@H](CC2CCNCC2)C(=O)N1C(=O)N1CCN(C(=O)c2cc3cc(F)ccc3[nH]2)CC1 (single isomer, unassigned)
- IC50 (Tryptase): 450 nM
- inhibition [5]: 63%

Compound: O=C(O)C1[C@@H](CC2CCNCC2)C(=O)N1C(=O)N1CCN(C(=O)c2ccccc2Oc2ccccc2)CC1 (single isomer, unassigned)
- IC50 (Tryptase): 120 nM
- inhibition [5]: 2%

Compound: O=C(O)C1[C@@H](CC2CCNCC2)C(=O)N1C(=O)N1CCN(C(=O)c2ccc3ccccc3n2)CC1 (single isomer, unassigned)
- IC50 (Tryptase): 110 nM
- inhibition [5]: 51%

Compound: O=C(O)C1[C@@H](CC2CCNCC2)C(=O)N1C(=O)N1CCN(C(=O)Cc2ccc3ccccc3c2)CC1 (single isomer, unassigned)
- IC50 (Tryptase): 70 nM
- inhibition [5]: 22%

Compound: O=C(O)C1[C@@H](CC2CCNCC2)C(=O)N1C(=O)N1CCN(C(=O)Cc2ccc(CCCc3ccccc3)cc2)CC1 (single isomer, unassigned)
- IC50 (Tryptase): 9 nM
- IC50 (Serine protease 1 [1]): 1580 nM

Compound: O=C(O)C1[C@@H](CC2CCNCC2)C(=O)N1C(=O)N1CCN(C(=O)CCCCCc2cccc3ccccc23)CC1 (single isomer, unassigned)
- IC50 (Tryptase): 1 nM
- IC50 (Serine protease 1 [1]): 240 nM

Compound: CCCCCCc1ccc(-c2ccc(C(=O)N3CCN(C(=O)N4C(=O)[C@H](CC5CCNCC5)C4C(=O)O)CC3)cc2)cc1 (single isomer, unassigned)
- IC50 (Tryptase): 120 nM
- IC50 (Serine protease 1 [1]): 1200 nM

Compound: O=C(O)C1[C@@H](CC2CCNCC2)C(=O)N1C(=O)N1CCN(C(=O)CCCCCCc2cccc3ccccc23)CC1 (single isomer, unassigned)
- IC50 (Tryptase): 1 nM
- IC50 (Serine protease 1 [1]): 320 nM

Compound: O=C(O)C1[C@@H](CC2CCNCC2)C(=O)N1C(=O)N1CCN(C(=O)c2ccc(-c3ccccc3)cc2)CC1 (single isomer, unassigned)
- IC50 (Tryptase): 6 nM
- IC50 (Serine protease 1 [1]): 120 nM

Compound: O=C(O)C1[C@@H](CC2CCNCC2)C(=O)N1C(=O)N1CCN(C(=O)c2ccc(C3CCCCC3)cc2)CC1 (single isomer, unassigned)
- IC50 (Tryptase): 40 nM
- inhibition [5]: 76%

Compound: O=C(O)C1[C@@H](CC2CCNCC2)C(=O)N1C(=O)N1CCN(C(=O)Cc2ccc3c(c2)OCO3)CC1 (single isomer, unassigned)
- IC50 (Tryptase): 55 nM
- inhibition [5]: 19%

Compound: O=C(O)C1[C@@H](CC2CCNCC2)C(=O)N1C(=O)N1CCN(C(=O)c2ccc3ccccc3c2)CC1 (single isomer, unassigned)
- inhibition [5]: 72%
